Measured values published in US20080182751A1, “Brassicaceae Plant Materials and Method for Their Use as Biopesticides” (Idaho Research Foundation, Inc., priority 2006, published 2008).

How the values were obtained:
[1] = Stability of 4-hydroxybenzyl isothiocyanate in buffered aqueous solutions (citrate buffers); type: physicochemical; settings: citrate buffer
Experimental: Stability of 4-Hydroxybenzyl Isothiocyanate in Buffered Media. Partially purified 4-hydroxybenzyl isothiocyanate was prepared by suspending 500 grams of S. alba seed meal in 2 liters of deionized water and extracting the mixture with 500 milliliters of ethyl acetate for 24 hours. The ethyl acetate extract was separated by decanting the top organic layer after centrifugation, dried with 100 g of anhydrous sodium sulfate over night, and concentrated under vacuum at laboratory temperature. The crude 4-hydroxybenzyl isothiocyanate extract was further purified by preparative column chromatography on silica gel (500 grams). […] Content of 4-hydroxybenzyl isothiocyanate within the fractions was verified by GC-MS using instrumentation and conditions as described previously. Fractions containing 4-hydroxybenzyl isothiocyanate were combined and concentrated under vacuum at laboratory temperature producing a yellowish, viscous fluid displaying only 4-hydroxybenzyl isothiocyanate and pentane/methylene chloride solvent peaks in the GC chromatogram. No further concentration of 4-hydroxybenzyl isothiocyanate was achieved using vacuum distillation because of its instability.
The pH stability of 4-hydroxybenzyl isothiocyanate was analyzed by incubating 25 μL of partially purified extract dissolved in 25 milliliters of eight different buffers with pH values ranging from 3.0 to 6.5 (FIG. 7). 0.1 M buffers were used, and were prepared by mixing 0.2 M sodium citrate and citric acid solutions in pre-calculated ratios ranging from 4 milliliters sodium citrate and 46 milliliters citric acid to 41 milliliters sodium citrate and 9 milliliters citric acid in a total volume of […]. Actual pH values of the buffers of 3.03, 3.52, 4.02, 4.49, 5.00, 5.46, 5.91, and 6.52 were verified using an Orion model 420A pH meter (Orion Research, Boston). At specific times during the incubation a 1-milliliter sample was withdrawn from the buffered reaction solution with a syringe and injected into a Waters Integrity HPLC system (2695 separation module, 996 PDA, and TMD) equipped with a 150×2 mm i.d., 5 μm Aqua C-18 column (Phenomenex). The instrument was operated at a constant flow rate of 200 μL/min with a gradient from 5 to 35% of methanol during each 30-minute run. Half-lives for 4 hydroxybenzyl isothiocyanate were estimated from straight lines obtained by plotting the natural logarithm of the normalized concentration versus time (FIG. 7). This experiment was repeated twice with two different meal extracts acquired by the same procedures from the same seed material. Half-lives from only one of the experiments are reported since the results for both experiments were similar.

[2] = pH stability of 4-OH benzyl ITC in 5 buffer solutions; type: physicochemical
Experimental: The pH stability of 4-OH benzyl ITC was assayed by incubating it in 5 buffer solutions (sodium acetate/acetic acid from pH range 3 to 5 and monosodium phosphate/phosphatic acid for pH above 5) with pHs ranging from 3.0 to 7.0. At specific times during the incubation a sample from the incubated solution was withdrawn with a syringe and injected into an HPLC-PDA (Waters Integrity system, separation module 2695, photodiode array detector 996, column Phenomenex Aqua C-18, 5 μm, 150×2 mm, with a constant flow rate of 200 μl/minute gradient from 5 to 35% of methanol in 30 minutes). The amount of 4-OH benzyl ITC was determined using calibration with benzyl ITC.

wheat = settings: effect no longer observed at 69 days post application (Bissey and Butler 1934); cited from earlier work
weeds = settings: Harvey 1931; cited from earlier work
cotton = settings: solutions sprayed directly on vegetative growth (Harvey 1931); cited from earlier work

Q: For Oc1ccc(CN=C=S)cc1 [4-hydroxybenzyl isothiocyanate], which half-life ([1]; pH 3.0 buffer) is on record?
A: 5.35 h

Q: And the half-life ([1]; pH 3.5 buffer)?
A: 5.2 h

Q: What about the half-life ([1]; pH 4.0 buffer) of the same molecule?
A: 4.5 h

Q: What about the half-life ([1]; pH 4.5 buffer) of the same molecule?
A: 3.25 h

Q: And the half-life ([1]; pH 5.0 buffer)?
A: 1.67 h

Q: And the half-life ([1]; pH 5.5 buffer)?
A: 0.817 h

Q: And the half-life ([1]; pH 6.0 buffer)?
A: 0.267 h

Q: What about the half-life ([1]; pH 6.5 buffer) of the same molecule?
A: 0.1 h

Q: And the “Half Life” value ([2]; pH 3)?
A: 3.6 h

Q: And the “Half Life” value ([2]; pH 4)?
A: 2.1 h

Q: What about the “Half Life” value ([2]; pH 5) of the same molecule?
A: 1.5 h

Q: And the “Half Life” value ([2]; pH 6)?
A: 0.1 h

Q: And the “Half Life” value ([2]; pH 7, listed as isothiocyanate precursor)?
A: 0.08 h

Q: What about the half-life ([2]; sodium acetate/acetic acid buffer, pH 3.0) of the same molecule?
A: 3.6 h

Q: Which “application rate causing inhibition of wheat germination” value (wheat) does the source give for N#CS [SCN^−, ionic thiocyanate] here?
A: 342 kilograms SCN^−/ha

Q: And the “rate necessary for complete plant kill for 4 months” value (weeds)?
A: 1,366 kg SCN^−/ha

Q: What about the “rate removing a large percentage of the weeds” value (weeds) of the same molecule?
A: 137 kilograms/SCN^− ha

Q: What about the “rate at which cotton defoliation was possible” value (cotton) of the same molecule?
A: 8.6 kilograms SCN^−/ha
